The subject of assay [1] is TGF-β-stimulated SMAD3 phosphorylation in BEAS-2B cells. Briefly: Cellular ALK5 potency assay, inhibition of TGF-β stimulated pSMAD3 formation in BEAS-2B cells. The format is cell-based. The conditions noted are these: Homo sapiens, pSMAD3, TGF-β 10 ng/mL, read-out: BEAS2B pIC50 (converted). In short, it runs like this:
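Read-out is AlphaLISA detection of phospho-SMAD3 in lysates of BEAS-2B human lung epithelial cells. Cells are exposed to compound for 1 hour, then to 10 ng/mL TGF-β (final) for 30 minutes. Values are pIC50 from concentration–response curves.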

In assay [2] the target is T1, recombinant human ALK5 (TGF-βR1) protein (Homo sapiens, UniProt P36897).
T1 construct: purchased Life Technologies PR9075A
T1 sequence (P36897 34-503): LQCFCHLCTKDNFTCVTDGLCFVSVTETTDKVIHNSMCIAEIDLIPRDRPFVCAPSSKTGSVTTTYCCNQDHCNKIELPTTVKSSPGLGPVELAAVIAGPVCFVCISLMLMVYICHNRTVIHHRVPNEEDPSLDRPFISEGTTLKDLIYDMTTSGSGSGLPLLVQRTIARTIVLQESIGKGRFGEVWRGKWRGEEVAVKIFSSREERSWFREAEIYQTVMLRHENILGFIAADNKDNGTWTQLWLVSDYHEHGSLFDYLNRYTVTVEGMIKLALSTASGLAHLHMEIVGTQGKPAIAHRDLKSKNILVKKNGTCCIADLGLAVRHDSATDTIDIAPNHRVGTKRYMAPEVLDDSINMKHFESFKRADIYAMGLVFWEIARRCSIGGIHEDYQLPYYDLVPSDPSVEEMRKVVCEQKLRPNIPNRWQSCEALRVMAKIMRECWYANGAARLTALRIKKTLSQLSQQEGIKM
Nature of the assay: Biochemical ALK5 (TGF-βR1) assay to measure pKi (LANCE Ultra ULight kinase assay). The settings on record: apparent pKi, converted from pIC50 by Cheng-Prusoff. A digest of the protocol: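 Enzyme was preincubated with compound for 60 min at room temperature, then ATP (added from a 125 μM 5× stock with 2 mM DTT) started a 60 min reaction at 37 °C. EDTA plus Eu-anti-phospho-Topo2α (Thr1342) antibody stopped it; TR-FRET pIC50 values were converted to pKi by Cheng-Prusoff.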

As for `Cc1cccc(-c2nc(Nc3ccnc(Nc4ccc(NC(=O)C5CNC5)cc4)n3)c3cccn3n2)n1` [Compound 1026, N-[4-[[4-[[2-(6-methyl-2-pyridyl)pyrrolo[2,1-f][1,2,4]triazin-4-yl]amino]pyrimidin-2-yl]amino]phenyl]azetidine-3-carboxamide], the IC50 in assay [1] was 25.1 to 158 nM. In addition, the Ki in assay [2] is 0.0398 to 0.316 nM.

On to `Cc1cccc(-c2nccc(Nc3ccnc(Nc4ccc(CN5CCC(C(=O)O[C@@H]6CCN(C)C6)C5)cc4)n3)n2)n1` (stereo partly drawn) [Compound 195, [(3R)-1-methylpyrrolidin-3-yl] 1-[[4-[[4-[[2-(6-methyl-2-pyridyl)pyrimidin-4-yl]amino]pyrimidin-2-yl]amino]phenyl]methyl] pyrrolidine-3-carboxylate], for which, in assay [1], the IC50 was 25.1 to 158 nM. In assay [2], the Ki is 0.0398 to 0.316 nM.

Turning to `Cc1cccc(-c2nccc(Nc3ccnc(Nc4nc(C(=O)O[C@H]5CCN(C)C5)cs4)n3)n2)n1` [Compound 323, [(3S)-1-methylpyrrolidin-3-yl] 2-[[4-[[2-(6-methyl-2-pyridyl)pyrimidin-4-yl]amino]pyrimidin-2-yl]amino]thiazole-4-carboxylate], the IC50 in assay [1] was 25.1 to 158 nM. Besides, the Ki in assay [2] is 0.398 to 3.16 nM.

With `Cc1cccc(-c2nccc(Nc3ccnc(Nc4cccc(C(=O)N5CCN(C)CC5)c4)n3)n2)n1` [Compound 396, (4-methylpiperazin-1-yl)-[3-[[4-[[2-(6-methyl-2-pyridyl)pyrimidin-4-yl]amino]pyrimidin-2-yl]amino]phenyl]methanone], the IC50 in assay [1] was 25.1 to 158 nM. The Ki in assay [2] was 0.398 to 3.16 nM.

On to `CC[C@H](C)OC(=O)C1CN(c2ccc(Nc3nccc(Nc4ccnc(-c5cccc(C)n5)n4)n3)cc2)CCN1` (stereo partly drawn) [Compound 113, [(1S)-1-methylpropyl] 4-[4-[[4-[[2-(6-methyl-2-pyridyl)pyrimidin-4-yl]amino]pyrimidin-2-yl]amino]phenyl]piperazine-2-carboxylate], for which, in assay [1], the IC50 was 25.1 to 158 nM. In addition, the Ki in assay [2] is 0.0398 to 0.316 nM.

As for `Cc1cccc(-c2nccc(Nc3ccnc(Nc4ccc(Cl)c(CN5C6CCC5CNC6)c4)n3)n2)n1` [Compound 487, N2-[4-chloro-3-(3,8-diazabicyclo[3.2.1]octan-8-ylmethyl)phenyl]-N4-[2-(6-methyl-2-pyridyl)pyrimidin-4-yl]pyrimidine-2,4-diamine], the IC50 in assay [1] is 25.1 to 158 nM. The Ki in assay [2] is 0.0398 to 0.316 nM.

With `Cc1cccc(-c2nccc(Nc3ccnc(Nc4ccc(C(=O)O[C@@H]5CCNC5)cn4)n3)n2)n1` [Compound 574, [(3R)-pyrrolidin-3-yl] 6-[[4-[[2-(6-methyl-2-pyridyl)pyrimidin-4-yl]amino]pyrimidin-2-yl]amino]pyridine-3-carboxylate], the IC50 in assay [1] is 200 to 1260 nM. In addition, the Ki in assay [2] was 3.98 to 31.6 nM.

`Cc1cccc(-c2nccc(Nc3ccnc(Nc4ccc(C(=O)OC5CCNCC5)s4)n3)n2)n1` [Compound 239, 4-piperidyl 5-[[4-[[2-(6-methyl-2-pyridyl)pyrimidin-4-yl]amino]pyrimidin-2-yl]amino]thiophene-2-carboxylate]: the IC50 in assay [1] is 25.1 to 158 nM. In addition, the Ki in assay [2] was 0.0398 to 0.316 nM.

`CNC1CCN(S(=O)(=O)c2cccc(Nc3nccc(Nc4ccnc(-c5cccc(C)n5)n4)n3)c2)CC1` [Compound 176, N2-[3-[[4-(methylamino)-1-piperidyl]sulfonyl]phenyl]-N4-[2-(6-methyl-2-pyridyl)pyrimidin-4-yl]pyrimidine-2,4-diamine]: the IC50 in assay [1] is 25.1 to 158 nM. For the same compound, the Ki in assay [2] is 0.398 to 3.16 nM.

For `Cc1cccc(-c2nccc(Nc3ccnc(Nc4ccc(CN5CCOCC5)c(F)c4)n3)n2)n1` [Compound 242, N2-[3-fluoro-4-(morpholinomethyl)phenyl]-N4-[2-(6-methyl-2-pyridyl)pyrimidin-4-yl]pyrimidine-2,4-diamine], the IC50 in assay [1] was 25.1 to 158 nM. Also, in assay [2], the Ki was 0.0398 to 0.316 nM.

Regarding `Cc1cccc(-c2nccc(Nc3ccnc(Nc4ccc(CN)cc4)n3)n2)n1` [Compound 187, N2-[4-(aminomethyl)phenyl]-N4-[2-(6-methyl-2-pyridyl)pyrimidin-4-yl]pyrimidine-2,4-diamine], in assay [1], the IC50 was 25.1 to 158 nM. Also, in assay [2], the Ki is 0.0398 to 0.316 nM.

Turning to `Cc1cccc(-c2nccc(Nc3ccnc(Nc4csc(C(=O)O[C@H]5CCNC5)c4)n3)n2)n1` [Compound 544, [(3S)-pyrrolidin-3-yl] 4-[[4-[[2-(6-methyl-2-pyridyl)pyrimidin-4-yl]amino]pyrimidin-2-yl]amino]thiophene-2-carboxylate], the IC50 in assay [1] was 25.1 to 158 nM. In assay [2], the Ki was 0.0398 to 0.316 nM.

For `Cc1cccc(-c2nccc(Nc3ccnc(Nc4ccc(C(=O)O[C@@H]5CCNC5)nc4)n3)n2)n1` [Compound 546, [(3R)-pyrrolidin-3-yl] 5-[[4-[[2-(6-methyl-2-pyridyl)pyrimidin-4-yl]amino]pyrimidin-2-yl]amino]pyridine-2-carboxylate], the IC50 in assay [1] is 25.1 to 158 nM. Also, in assay [2], the Ki is 0.0398 to 0.316 nM.

`Cc1cccc(-c2nccc(Nc3ccnc(Nc4cccc(C(=O)O)c4)n3)n2)n1` [Compound 423, 3-[[4-[[2-(6-methyl-2-pyridyl)pyrimidin-4-yl]amino]pyrimidin-2-yl]amino]benzoic acid]: the IC50 in assay [1] was 1580 to 10000 nM. The Ki in assay [2] is 0.398 to 3.16 nM.

As for `Cc1cccc(-c2nccc(Nc3ccnc(Nc4ccc(CN5CCC[C@H](C(=O)OCC6CNC6)C5)cc4)n3)n2)n1` [Compound 67, azetidin-3-ylmethyl (3S)-1-[[4-[[4-[[2-(6-methyl-2-pyridyl)pyrimidin-4-yl]amino]pyrimidin-2-yl]amino]phenyl]methyl] piperidine-3-carboxylate], the IC50 in assay [1] is 25.1 to 158 nM. Moreover, the Ki in assay [2] was 0.0398 to 0.316 nM.

Regarding `Cc1cccc(-c2nccc(Nc3ccnc(Nc4ccc(CC5CCNCC5)cc4)n3)n2)n1` [Compound 476, N4-[2-(6-methyl-2-pyridyl)pyrimidin-4-yl]-N2-[4-(4-piperidylmethyl)phenyl] pyrimidine-2,4-diamine], in assay [1], the IC50 is 25.1 to 158 nM. Besides, in assay [2], the Ki is 0.0398 to 0.316 nM.

`Cc1cccc(-c2nccc(Nc3ccnc(Nc4ccc(NC(=O)N5CCN(C(C)C)CC5)cc4)n3)n2)n1` [Compound 110, 4-isopropyl-N-[4-[[4-[[2-(6-methyl-2-pyridyl)pyrimidin-4-yl]amino]pyrimidin-2-yl]amino]phenyl]piperazine-1-carboxamide]: the IC50 in assay [1] was 25.1 to 158 nM. Moreover, the Ki in assay [2] was 0.0398 to 0.316 nM.

Take `CC(=O)N1CCN(c2cccc(Nc3nccc(Nc4ccnc(-c5cccc(C)n5)n4)n3)c2)CC1` [Compound 190, 1-[4-[3-[[4-[[2-(6-methyl-2-pyridyl)pyrimidin-4-yl]amino]pyrimidin-2-yl]amino]phenyl]piperazin-1-yl]ethanone]: the IC50 in assay [1] was 25.1 to 158 nM. For the same compound, in assay [2], the Ki was 0.0398 to 0.316 nM.

`Cc1cccc(-c2nc(Nc3ccnc(Nc4cccc(C(=O)O)c4)n3)c3cccn3n2)n1` [Compound 1017, 3-[[4-[[2-(6-methyl-2-pyridyl)pyrrolo[2,1-f][1,2,4]triazin-4-yl]amino]pyrimidin-2-yl]amino]benzoic acid]: the IC50 in assay [1] is 200 to 1260 nM. Further, the Ki in assay [2] is 0.398 to 3.16 nM.

`Cc1cccc(-c2nccc(Nc3ccnc(Nc4ccc(S(=O)(=O)N(C)CCN)cc4)n3)n2)n1` [Compound 63, N-(2-aminoethyl)-N-methyl-4-[[4-[[2-(6-methyl-2-pyridyl)pyrimidin-4-yl]amino]pyrimidin-2-yl]amino]benzenesulfonamide]: the IC50 in assay [1] is 25.1 to 158 nM. In assay [2], the Ki is 0.0398 to 0.316 nM.

The record behind these values is patent US20230399312A1, “SUBSTITUTED PYRIMIDINES AND METHODS OF USE” (THERAVANCE BIOPHARMA R&D IP, LLC, priority 2020, published 2023).
